# Patent US20230078511A1, “METHODS OF USING MOMELOTINIB TO TREAT JOINT INFLAMMATION” (Sierra Oncology, Inc., priority 2020, published 2023)
# Key:
# CAIA BALB/C mice = assay: CAIA murine rheumatoid arthritis model in BALB/C mice (Example 4); format: in vivo; conditions: for mean rear paw rheumatoid arthritis score / mean rear paw thickness / mean total animal rheumatoid arthritis score: beginning on day 6, vs vehicle, MMB 50 mg/kg daily or 30 mg/kg twice daily oral, etanercept 10 mg/kg daily IP
# Protocol: BALB/C mice were immunized with 2 mg anti-collagen II antibodies administered intraperitoneally (IP) on day 0 followed by intraperitoneal injection of 100 µg of lipopolysaccharide (LPS) on day 3. Beginning at RA induction, mice were treated orally for the entirety of the study either once daily vehicle, MMB (50 mg/kg), twice daily with MMB (30 mg/kg), or daily intraperitoneally, etanercept (ETA) (10 mg/kg). Consecutive assessment of rheumatoid arthritis was performed by animal and rear paw scoring, and rear paw thickness measurements.
# PG-PS-immunized rats = assay: PG-PS induced rat model of chronic arthritis (Example 1); format: in vivo, Lewis rats
# Protocol: Six-week old female Lewis rats are immunized with 15 mg/kg Streptococcal Peptidoglycan-Polysaccharide (PG-PS) administered intraperitoneally (IP). Treatments with anti-inflammatory drugs of interest are commenced two weeks later and continue for 7 days (short-term) to 21 days (long-term). Disease progression is monitored as described below (see Joint Pathology, Clinical Scoring and Bio-Imaging). Blood samples are collected once weekly and processed as described below. At the conclusion of experiments, blood, serum, and organ samples are collected and processed as described herein.
# Spleen and lymph node cells are isolated by mechanical pressing of the organ through a 100 µm cell strainer (Corning) in PBS. For isolation of rat synovial infiltrates, hind limbs are freed of skin, bones, and major tendons. The remaining tissue is minced and digested with 0.16 U Liberase TM, 10 µg/mL DNase I, and 60 U hyaluronidase I in RPMI at 37° C. for 1 hour. Blood is collected into heparinized tubes and used directly for blood count determination. For immunophenotyping of blood leukocytes, blood samples are depleted from red blood cells by lysis with ACK buffer (150 mM NH4Cl, 10 mM KHCO3, 0.1 mM EDTA).
# Flow cytometry staining is performed as described in Parajuli et al., Int. J. Cancer 126:896-908, 2010, which is hereby incorporated by reference in its entirety. Measurements are performed with a Cytoflex S device (Beckman Coulter) and FACS Symphony (Beckton Dickinson), enabling detection of 13 and 52 fluorescence parameters, respectively, as well as automated absolute cell count determination.
# For intracellular cytokine/transcription factor staining, rat and murine T cells are re-stimulated for 4 hours with phorbol 12,13-dibutyrate (PDBu) and ionomycin (50 ng/mL and 500 ng/mL, respectively) in the presence of Golgi Stop (BD Bioscience). In sum, five multicolor antibody panels per species (rat, mouse) are established (blood leukocytes, organ leukocytes, intracellular staining for Th cell subtypes, blood reticulocytes, bone marrow erythropoiesis). Data analysis is performed using FlowJo Software.
# (§1) Regular monitoring of arthritis progression in all animal models is accomplished by measuring hind limb ankle joint diameters with a Vernier’s caliper (volume = D × d^2Π/6, D and d are ankle diameters measured in perpendicular axes, D > d). In murine arthritis models, animals are additionally clinically scored with a system assessing swelling and mobility of each animal’s limb, as described in Inglis et al., Arthritis Res. Ther. 8:R113, 2007, which is hereby incorporated by reference in its entirety. Each paw of an experimental animal is assessed separately as follows: 0 - normal, 1 - slight swelling or erythrema, 2 - pronounced swelling, 3 - joint rigidity. The paw scores for each animal are summed giving a maximum of 12 points per mouse. Scoring is performed by a rater blinded to the group assignment.
# A rat model of chronic arthritis (PG-PS induced) was used to assess the efficacy of the dual JAK1/2 and ACVR1 inhibitor momelotinib (MMB) in vivo. Two weeks following arthritis induction by immunization with PG-PS, rats were treated with daily oral doses of MMB (5, 10, and 25 mg/kg) or vehicle for 3 weeks.
# Consecutive assessment of arthritis was performed by joint thickness measurements and paw scoring. Following 3 weeks of treatment, synovial immune cell infiltration and T cell subset differentiation were quantified by multi-color flow cytometry. Cytokine gene expression was profiled by Real-Time PCR. Anemia was assessed by determination of blood hemoglobin and serum, spleen and liver iron levels.
# myelofibrosis patients = myelofibrosis patients treated with MMB; background statement; cited from earlier work
# [1] = molecular target: T1, Activin Receptor Type 1 (ACVR1) (Homo sapiens, UniProt Q04771); conditions: background statement; cited from earlier work
# T1 sequence (Q04771 21-509): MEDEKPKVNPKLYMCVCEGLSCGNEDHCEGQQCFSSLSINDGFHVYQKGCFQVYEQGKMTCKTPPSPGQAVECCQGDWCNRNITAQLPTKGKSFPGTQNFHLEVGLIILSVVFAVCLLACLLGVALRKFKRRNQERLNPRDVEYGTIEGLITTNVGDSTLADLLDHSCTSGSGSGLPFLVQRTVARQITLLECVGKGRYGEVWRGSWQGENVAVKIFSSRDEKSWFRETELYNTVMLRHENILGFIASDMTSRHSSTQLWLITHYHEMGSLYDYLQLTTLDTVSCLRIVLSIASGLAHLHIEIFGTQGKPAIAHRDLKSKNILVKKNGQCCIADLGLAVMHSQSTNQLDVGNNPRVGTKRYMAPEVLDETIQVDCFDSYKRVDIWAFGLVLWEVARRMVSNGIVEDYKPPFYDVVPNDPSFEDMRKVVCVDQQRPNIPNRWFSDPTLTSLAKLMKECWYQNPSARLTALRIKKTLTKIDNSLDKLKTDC
# rat model = conditions: background statement; cited from earlier work
# CAIA DBA/1 mice = assay: Collagen antibody-induced arthritis (CAIA) in DBA/1 mice (Example 2); format: in vivo
# Description: as §1, with “Vernier's” for “Vernier’s”, “animal's” for “animal’s”, “Inglis” left out, “8:[…],” for “8:R113,”, “[…],” for “erythrema,”, “assignment. In order to evaluate efficacy of MMB treatment in a second arthritic animal model, arthritis was induced in DBA/1 mice by intravenous injection of collagen antibody cocktail on day 0 followed by intraperitoneal injection of lipopolysaccharide (LPS) on day 3. […] Comparator controls dexamethasone (1 mg/kg) or the TNF-α inhibitor, etanercept (10 mg/kg) were administered daily by intraperitoneal injection beginning on day 0.” for “assignment.”
# PG-PS-immunized RA rats = assay: PG-PS rat rheumatoid arthritis (RA) model, 3 or 21 days of treatment (Example 3); format: in vivo, Lewis rats
# Protocol: Female Lewis rats were immunized with 15 mg/kg Streptococcal Peptidoglycan-Polysaccharide (PG-PS) administered intraperitoneally (IP) to generate a rat model of rheumatoid arthritis. Rats were used to assess the efficacy of the dual JAK1/2 and ACVR1 inhibitor momelotinib (MMB) in vivo. Two weeks following rheumatoid arthritis induction by immunization with PG-PS, rats were treated with daily oral doses of MMB (5, 10, 25 mg/kg) or vehicle for 3 or 21 days.
# Statistical significance was determined with one-way ANOVA for RA animals with Bonferroni post-hoc tests (N=5-10 per group, * p < 0.05, ** p < 0.01).
# Cytokine gene expression was profiled by Real-Time PCR. For immunophenotyping of blood leukocytes and granulocyte counts were obtained. Anemia was assessed by determination of blood hemoglobin and serum, spleen and liver iron levels.
# [2] = all tested doses (5, 10, 25 mg/kg), vs vehicle in PG-PS animals
# [3] = beginning at the lowest tested dose (5 mg/kg)
# [4] = daily oral, 3 weeks, flow cytometry
# [5] = daily oral, 3 weeks, hind limb ankle joints, flow cytometry
# [6] = beginning on day 5, vs vehicle, MMB 50 mg/kg daily or 30 mg/kg twice daily oral, etanercept 10 mg/kg daily IP
# [7] = 21 days of treatment, compared to healthy and RA rats
# [8] = 21 days of treatment, flow cytometry
compound,measurement,setting,value
"N#CCNC(=O)c1ccc(-c2ccnc(Nc3ccc(N4CCOCC4)cc3)n2)cc1 [MMB, N-(cyanomethyl)-4-(2-(4-morpholinophenylamino)pyrimidin-4-yl)benzamide]",rheumatoid arthritis scoring versus the TNF-α inhibitor etanercept,"CAIA BALB/C mice; CAIA model, BALB/C mice",non-inferiority
same,mean rear paw rheumatoid arthritis score,CAIA BALB/C mice,significant reduction
same,mean rear paw thickness,CAIA BALB/C mice,significant reduction
same,mean total animal rheumatoid arthritis score,CAIA BALB/C mice,significant reduction
same,anti-arthritic effectiveness compared with etanercept,CAIA BALB/C mice; murine CAIA RA model,at least equally effective
same,joint swelling,PG-PS-immunized rats; 25 mg/kg,complete remission
same,splenic granulocytes (percentage of splenic CD45+ leukocytes),"PG-PS-immunized rats; 25 mg/kg for 3 weeks, flow cytometry",significant reduction
same,mean sum diameter of hind limb joints,"PG-PS-immunized rats; 10 and 25 mg/kg daily oral, 3 weeks, caliper on last day of treatment, vs vehicle",significant reduction
same,reduction of inflammatory granulocyte infiltration in synovial tissue,PG-PS-immunized rats; [2],more than 60%
same,reduction of macrophage infiltration in synovial tissue,PG-PS-immunized rats; [2],more than 60%
same,arthritogenic Th17 cell differentiation,PG-PS-immunized rats; [3],effectively decreased
same,overall CD4+ T cells in the synovia,PG-PS-immunized rats; [3],effectively decreased
same,swelling and cartilage destruction in arthritic hind limb joints,"PG-PS-immunized rats; daily oral, 3 weeks, H&E sections at 10 mg/kg",substantially inhibits
same,granulocytes in synovial tissue of hind limb ankle joint pairs,PG-PS-immunized rats; [4],significantly reduced
same,inflammatory CD11b/c+ macrophages in synovial tissue,PG-PS-immunized rats; [4],significantly reduced
same,monocytes in synovial tissue,PG-PS-immunized rats; [4],significantly reduced
same,splenic Th1 cells,PG-PS-immunized rats; [4],reduced
same,splenic Th17 cells,PG-PS-immunized rats; [4],significant reduction
same,splenic Treg cells,PG-PS-immunized rats; [4],not significantly altered
same,synovial CD4+ T cells,PG-PS-immunized rats; [5],significant reductions
same,synovial CD8+ T cells,PG-PS-immunized rats; [5],significant reductions
same,CD4+ T cells in the arthritic ankle synovia,"PG-PS-immunized rats; lowest dose tested, 5 mg/kg",Reduction
same,RA-associated anemia,PG-PS-immunized rats; rats,substantial improvement
same,circulating hepcidin levels,PG-PS-immunized rats; rats,reduced
same,systemic iron,PG-PS-immunized rats; rats,mobilized
same,anemia benefit,myelofibrosis patients,clinically reproduced
same,inhibition of ACVR1,[1],potent inhibition
same,anemia,rat model,correct anemia
same,mean rear paw thickness,"CAIA DBA/1 mice; 20 mg/kg daily oral, days 7 and 12, vs vehicle",reduction
same,arthritis scoring versus the TNF-α inhibitor etanercept,"CAIA DBA/1 mice; CAIA model, DBA/1 mice",non-inferiority
same,mean rear paw arthritis score,CAIA DBA/1 mice; [6],significant reduction
same,mean rear paw thickness,CAIA DBA/1 mice; [6],significant reduction
same,mean total arthritis score,CAIA DBA/1 mice; [6],significant reduction
same,blood granulocyte counts,PG-PS-immunized RA rats; 3 days of treatment,significantly decreases
same,blood leukocyte counts,PG-PS-immunized RA rats; 3 days of treatment,significantly decreases
same,spleen and liver cytokine expression,"PG-PS-immunized RA rats; 3 days of treatment, Real-Time PCR",significantly decreases
same,cartilage damage,"PG-PS-immunized RA rats; 21 days of treatment, H&E-stained hind limb joint sections",alleviates
same,anemia,PG-PS-immunized RA rats; [7],corrects
same,hepcidin,PG-PS-immunized RA rats; [7],decreases
same,hind limb joint swelling,"PG-PS-immunized RA rats; 21 days of treatment, figure shows 10 mg/kg",reduces
same,CD4+ T cell infiltration in hind-limb synovial tissue,PG-PS-immunized RA rats; [8],significantly reduces
same,CD8+ T cell infiltration in hind-limb synovial tissue,PG-PS-immunized RA rats; [8],significantly reduces
same,differentiation of splenic Th17 cells,PG-PS-immunized RA rats; [8],inhibits
same,infiltration of macrophages in hind limb synovia,PG-PS-immunized RA rats; [8],reduces
same,infiltration of neutrophils in hind limb synovia,PG-PS-immunized RA rats; [8],reduces
same,regulatory Treg cells,PG-PS-immunized RA rats; [8],without affecting
same,splenic Th1 cells,PG-PS-immunized RA rats; [8],without affecting
same,iron availability,PG-PS-immunized RA rats; rat PG-PS model,improves
etanercept [reference compound],mean rear paw rheumatoid arthritis score,CAIA BALB/C mice,significant reduction
same,mean rear paw thickness,CAIA BALB/C mice,significant reduction
same,mean total animal rheumatoid arthritis score,CAIA BALB/C mice,significant reduction
same,mean rear paw arthritis score,CAIA DBA/1 mice; [6],significant reduction
same,mean rear paw thickness,CAIA DBA/1 mice; [6],significant reduction
same,mean total arthritis score,CAIA DBA/1 mice; [6],significant reduction
